One assay relates to TNF. The assay is described as follows: PBMC assay: TNF cytokine levels in LPS-stimulated human PBMCs (MSD). It counts as cell-based. Conditions: 100 ng/ml LPS for 6 hrs, TNF in supernatant via MSD. The procedure:
(§1) Peripheral venous blood was collected from healthy individuals and human peripheral blood mononuclear cells (PBMCs) were isolated from blood by Ficoll-Histopaque (Sigma-Aldrich, A0561) density gradient centrifugation. After isolation, PBMCs were stored in liquid nitrogen for later use. Upon thawing, PBMC cell viability was determined in growth medium (RPMI media supplemented with 10% fetal bovine serum, 1% Pen-Strep and 1% L-glutamine). Compounds were spotted in a 1:3 serial dilution in DMSO and diluted to the final concentration in 30 μl medium in 96 well plates (Falcon, 353072). PBMCs were added at a density of 7.5×10^4 cells per well and incubated for 30 min in a 5% CO2 incubator at 37° C. LPS stimulation was performed by addition of 100 ng/ml LPS (final concentration, Invivogen, tlrl-smlps) for 6 hrs followed by collection of cellular supernatant and the analysis of IL-1β (μM) and TNF cytokines levels (μM) via MSD technology according to manufacturers' guidelines (MSD, K151A0H).
The IC50 values (for IL-1β) and EC50 values (TNF) were obtained on compounds of the invention/examples, and are depicted in the following table: […]

The next assay relates to NLRP3 inflammasome. Nature of the assay: PBMC assay: IL-1β in LPS-stimulated human PBMCs (MSD). The format is cell-based. Particulars: human PBMCs, 100 ng/ml LPS for 6 hrs, IL-1β in supernatant via MSD, read-out: IL1β IC50. The procedure: The activity of a compound according to the present invention can be assessed by in vitro methods.
as §1, with “Compounds were spotted in a 1:3 serial dilution in DMSO and diluted to the final concentration in 30 μl medium in 96 well plates (Falcon, 353072).” left out

The source of these data is US20230203044A1, “PYRAZOLO[1,5-D][1,2,4]TRIAZINE-5(4H)-ACETAMIDES AS INHIBITORS OF THE NLRP3 INFLAMMASOME” (JANSSEN PHARMACEUTICA NV, priority 2020, published 2023).

For the molecule `CC(C)c1nn(CC(=O)N[C@H]2C[C@@](C)(O)C2)c(=O)c2cc(C(C)(F)F)nn12` [Final Cpd 161], the EC50 (in general, the concentration at which the effect is half-maximal) in the assay with TNF is more than 10000 nM. For the same molecule, the half-maximal inhibitory concentration (IC50) (commonly the concentration that inhibits the measured activity by half) in the assay with NLRP3 inflammasome is 110 nM.
For `CC(C)c1nn(CC(=O)Nc2ccc3nc(C(F)(F)F)cn3c2)c(=O)c2cc(C3CC3)nn12` [Final Cpd 167], in that order: more than 10000 nM and 380 nM.
For `CCc1nn(CC(=O)Nc2ccncn2)c(=O)c2cc(C3CC3)nn12` [Final Cpd 10, 2-(2-cyclopropyl-7-ethyl-4-oxo-pyrazolo[1,5-d][1,2,4]triazin-5-yl)-N-pyrimidin-4-yl-acetamide], in that order: more than 10000 nM and 640 nM.
For `CC(C)c1nn(CC(=O)NC2CCC(=O)N(C)C2)c(=O)c2cc(C3CC3)nn12` (centres unmarked) [Final Cpd 29], in that order: more than 10000 nM and 1790 nM.
As for `CCCc1cc2c(=O)n(CC(=O)Nc3ccncn3)nc(C(C)C)n2n1` [Final Cpd 12], the EC50 with TNF is more than 10000 nM. The half-inhibitory concentration (IC50) with NLRP3 inflammasome was determined as 600 nM.
For the molecule `CC(C)c1nn(CC(=O)N[C@H]2CCC(=O)N(C)C2)c(=O)c2cc(C3CC3)nn12` [Final Cpd 31], in the assay on TNF, the half-maximal effective concentration (EC50) was more than 10000 nM. Further, the half-maximal inhibitory concentration (IC50) in the assay with NLRP3 inflammasome was 690 nM.
For `Cc1nnc2cc(NC(=O)Cn3nc(C(C)C)n4nc(C5CC5)cc4c3=O)ccn12` [Final Cpd 94], in that order: more than 10000 nM and 2340 nM.
In the assay with TNF, `Cc1nn(CC(=O)NCc2cccnc2)c(=O)c2cc(C3CC3)nn12` [Final Cpd 49] had an EC50 of more than 10000 nM. For the same molecule, in the assay on NLRP3 inflammasome, the IC50 was more than 10000 nM.
Take `COc1ncc(NC(=O)Cn2nc(C(C)C)n3nc(C4CC4)cc3c2=O)cn1` [Final Cpd 107]: in the assay on TNF, the concentration giving a half-maximal response (EC50) was more than 10000 nM. Besides, in the assay on NLRP3 inflammasome, the IC50 worked out at 4230 nM.
For `CC(C)c1nn(CC(=O)N[C@H]2C[C@@](C)(O)C2)c(=O)c2c(F)c(C3CC3)nn12` [Final Cpd 43], the EC50 in the assay with TNF was more than 10000 nM. Besides, the IC50 in the assay on NLRP3 inflammasome was 1060 nM.
For `CC(C)c1nn(CC(=O)Nc2ccc3nncn3c2)c(=O)c2c(F)c(C3CC3)nn12` [Final Cpd 44], in that order: more than 10000 nM and 620 nM.
With `CC(C)c1nn(CC(=O)Nc2ccncc2Cl)c(=O)c2cc(C3CC3)nn12` [Final Cpd 133], the EC50 in the assay with TNF was not below 10000 nM. In the assay with NLRP3 inflammasome, the IC50 stood at 440 nM.
For `COc1nccc(NC(=O)Cn2nc(C(C)C)n3nc(C4CC4)cc3c2=O)n1` [Final Cpd 132], in that order: more than 10000 nM and 720 nM.
In the assay with TNF, `CC(C)c1nn(CC(=O)Nc2ccn3c(F)cnc3c2)c(=O)c2cc(C3CC3)nn12` [Final Cpd 136] showed an EC50 of more than 10000 nM. For the same molecule, the IC50 in the assay on NLRP3 inflammasome came out at 1410 nM.
For `Cc1nccc(NC(=O)Cn2nc(C(C)C)n3nc(C4CC4)cc3c2=O)c1Cl` [Final Cpd 120], in that order: more than 10000 nM and 550 nM.
The molecule `Cc1c(NC(=O)Cn2nc(C(C)C)n3nc(C4CC4)cc3c2=O)ccnc1Cl` [Final Cpd 124] yielded a concentration giving a half-maximal response (EC50) in the assay on TNF of more than 10000 nM. For the same molecule, the IC50 in the assay with NLRP3 inflammasome turned out to be 610 nM.
For `CC(C)c1cc2c(=O)n(CC(=O)Nc3ccc4nncn4c3)nc(C(C)O)n2n1` (centres unmarked) [Final Cpd 155], in that order: more than 10000 nM and 1140 nM.
In the assay with TNF, `Cc1nn(CC(=O)N[C@H]2C[C@@H](OCc3ccccc3Cl)C2)c(=O)c2cc(C3CC3)nn12` [Final Cpd 53] returned an EC50 of more than 10000 nM. The half-inhibitory concentration (IC50) in the assay on NLRP3 inflammasome is more than 10000 nM.
For `CC(C)c1nn(CC(=O)Nc2ccc3nccn3n2)c(=O)c2cc(C3CC3)nn12` [Final Cpd 165], the EC50 in the assay with TNF was more than 10000 nM. Further, in the assay on NLRP3 inflammasome, the half-maximal inhibitory concentration (IC50) turned out to be 100 nM.
The corresponding values for `CC(C)c1nn(CC(=O)Nc2ccc3nncn3n2)c(=O)c2cc(C3CC3)nn12` [Final Cpd 166, N-([1,2,4]triazolo[4,3-b]pyridazin-6-yl)-2-(2-cyclopropyl-7-isopropyl-4-oxopyrazolo[1,5-d][1,2,4]triazin-5(4H)-yl)acetamide] are more than 10000 nM and 44 nM.
The molecule `CC(C)c1nn(CC(=O)Nc2ccncc2)c(=O)c2cc(C3CC3)nn12` [Final Cpd 118] came in with an EC50 with TNF of more than 10000 nM. Further, the IC50 in the assay with NLRP3 inflammasome was determined as 110 nM.
The corresponding values for `Cc1nn(CC(=O)NC2(C)CCC2)c(=O)c2cc(C3CC3)nn12` [Final Cpd 62] are more than 10000 nM and 8530 nM.
For `CC(C)c1nn(CC(=O)Nc2ccc3nncn3c2)c(=O)c2cc(C(C)(F)F)nn12` [Final Cpd 175, N-([1,2,4]triazolo[4,3-a]pyridin-6-yl)-2-(2-(1,1-difluoroethyl)isopropyl-4-oxopyrazolo[1,5-d][1,2,4]triazin-5(4H)-yl)acetamide], in that order: more than 10000 nM and 220 nM.
For `CC(C)c1nn(CC(=O)Nc2ccc3nncn3c2)c(=O)c2cc(C3CC3)nn12` [Final Cpd 80], in that order: more than 10000 nM and 80 nM.
In the case of `CC(C)c1nn(CC(=O)N[C@H]2C[C@@](C)(O)C2)c(=O)c2cc(C3CC3(F)F)nn12` (some centres unmarked) [Final Cpd 153], the EC50 in the assay with TNF is more than 10000 nM. Moreover, in the assay on NLRP3 inflammasome, the IC50 amounted to 90 nM.
In the assay with TNF, `CC(C)c1nn(CC(=O)Nc2cc(C#N)c3nncn3c2)c(=O)c2cc(C3CC3)nn12` [Final Cpd 193, N-(8-cyano-[1,2,4]triazolo[4,3-a]pyridin-6-yl)-2-(2-cyclopropyl-7-isopropyl-4-oxopyrazolo[1,5-d][1,2,4]triazin-5(4H)-yl)acetamide] had a 50% effective concentration (EC50) of more than 10000 nM. The IC50 with NLRP3 inflammasome was 980 nM.
As for `CC(C)c1nn(CC(=O)Nc2ccncn2)c(=O)c2cc(C3CC3)nn12` [Final Cpd 11], the 50% effective concentration (EC50) in the assay on TNF was more than 10000 nM. The half-maximal inhibitory concentration (IC50) in the assay on NLRP3 inflammasome stood at 170 nM.
The corresponding values for `Cc1nn(CC(=O)NC2(c3ccc(Cl)cc3Cl)CCC2)c(=O)c2cc(C3CC3)nn12` [Final Cpd 63] are more than 10000 nM and 7890 nM.
For `CC(C)c1nn(CC(=O)Nc2ccc(=O)n(C)n2)c(=O)c2cc(C3CC3)nn12` [Final Cpd 81], in that order: more than 10000 nM and 160 nM.
In turn, `CC(C)c1cc2c(=O)n(CC(=O)Nc3ccnnc3)nc(C(C)C)n2n1` [Final Cpd 144] had a concentration for a half-maximal effect (EC50) in the assay with TNF of more than 10000 nM. Also, in the assay with NLRP3 inflammasome, the IC50 was found to be 320 nM.
For `CC(C)c1nn(CC(=O)N[C@H]2C[C@@](C)(O)C2)c(=O)c2cc(NCC(F)(F)F)nn12` [Final Cpd 41], in the assay with TNF, the concentration for a half-maximal effect (EC50) was more than 10000 nM. The IC50 in the assay on NLRP3 inflammasome came out at 880 nM.
For `CC(C)c1nn(CC(=O)Nc2cc(F)[nH]c(=O)c2)c(=O)c2cc(C3CC3)nn12` [Final Cpd 164], the EC50 in the assay with TNF is more than 10000 nM. In addition, in the assay on NLRP3 inflammasome, the concentration for half-maximal inhibition (IC50) turned out to be 540 nM.
Take `Cc1nn(CC(=O)NC2CN([C@H](c3ccccc3)c3cncnc3)C2)c(=O)c2cc(C3CC3)nn12` [Final Cpd 60]: the concentration for a half-maximal effect (EC50) with TNF is more than 10000 nM. In addition, the half-inhibitory concentration (IC50) in the assay with NLRP3 inflammasome is more than 10000 nM.
Consider `C[C@]1(O)C[C@@H](NC(=O)Cn2nc(CC3CCC3)n3nc(C4CC4)cc3c2=O)C1` [Final Cpd 198], for which the EC50 in the assay on TNF is more than 10000 nM. Moreover, the IC50 with NLRP3 inflammasome is more than 10000 nM.
In the assay on TNF, `CC(C)c1nn(CC(=O)Nc2cccnc2Cl)c(=O)c2cc(C3CC3)nn12` [Final Cpd 109] returned a 50% effective concentration (EC50) of more than 10000 nM. In addition, the half-maximal inhibitory concentration (IC50) in the assay with NLRP3 inflammasome stood at 1080 nM.
On to `CC(C)c1nn(CC(=O)Nc2ccc(C(F)(F)F)nn2)c(=O)c2cc(C3CC3)nn12` [Final Cpd 172, 2-(2-cyclopropyl-7-isopropyl-4-oxopyrazolo[1,5-d][1,2,4]triazin-5(4H)-yl)-N-(6-(trifluoromethyl)pyridazin-3-yl)acetamide], for which, in the assay with TNF, the concentration giving a half-maximal response (EC50) was more than 10000 nM. Also, the 50% inhibitory concentration (IC50) in the assay with NLRP3 inflammasome is more than 10000 nM.
For `CCc1cc2c(=O)n(CC(=O)Nc3ccncn3)nc(CC)n2n1` [Final Cpd 13], the EC50 in the assay with TNF is more than 10000 nM. Moreover, in the assay on NLRP3 inflammasome, the IC50 was 1710 nM.
Regarding `C[C@]1(O)C[C@@H](NC(=O)Cn2nc(CC3CCOC3)n3nc(C4CC4)cc3c2=O)C1` (some centres unmarked) [Final Cpd 197], in the assay on TNF, the 50% effective concentration (EC50) was more than 10000 nM. In addition, the half-maximal inhibitory concentration (IC50) in the assay with NLRP3 inflammasome was more than 10000 nM.
In the case of `Cc1nc2ccc(NC(=O)Cn3nc(C(C)C)n4nc(C5CC5)cc4c3=O)cn2n1` [Final Cpd 89], the EC50 in the assay with TNF is more than 10000 nM. In addition, in the assay on NLRP3 inflammasome, the IC50 is 230 nM.
Molecule `CCc1nn(CC(=O)N[C@H]2C[C@@](C)(O)C2)c(=O)c2cc(I)nn12` [Final Cpd 7] had an EC50 in the assay with TNF of more than 10000 nM. In addition, in the assay on NLRP3 inflammasome, the half-maximal inhibitory concentration (IC50) came out at 600 nM.
For `CC(C)c1nn(CC(=O)Nc2cc(Br)c3nncn3c2)c(=O)c2cc(C3CC3)nn12` [Final Cpd 95], in that order: more than 10000 nM and 370 nM.
For `C=C(OCC)c1cc2c(=O)n(CC(=O)Nc3ccncn3)nc(C(C)C)n2n1` [Final Cpd 179, 2-(2-(1-ethoxyvinyl)-7-isopropyl-4-oxopyrazolo[1,5-d][1,2,4]triazin-5(4H)-yl)-N-(pyrimidin-4-yl)acetamide], in that order: more than 10000 nM and more than 10000 nM.
For `Cc1nn(CC(=O)NC23CCCC2C2CCCC23)c(=O)c2cc(C3CC3)nn12` (centres unmarked) [Final Cpd 67], in that order: more than 10000 nM and more than 10000 nM.
